Data: patent publication US20240122879A1, “COMPOSITIONS AND METHODS FOR TREATING OCULAR CHEMICAL BURNS” (OHIO STATE INNOVATION FOUNDATION, priority 2022, published 2024)
“Also recorded” adds a separate entry of the source.

Columns and labels:
GsdmD [1] = test: Western blot of GsdmD cleavage in isolated primary mouse neutrophils; assay type: cell-based; details: primary neutrophils from mouse bone marrow; FIG. 12
From the text: (§1) To further confirm neutrophils undergo pyrotposis, primary neutrophils were isolated and purified from mouse bone marrow. Isolated neutrophils underwent pyroptosis quickly after isolation followed by activation of apoptosis, as evidenced by cleaved caspase-3 (FIG. 11).
(§2) Bone marrow samples were obtained as previously described. Briefly, lower limbs were collected from euthanized mice. All attached soft tissue was removed to fully expose the femurs and tibias. An 18G needle was inserted into hollow of the bone and pulse flush buffer (2% FBS in PBS) used to flush marrow into a 15 ml sterile centrifuge tube. The solution was then filtered with a 70-100 μm filter. The solution was centrifuged at […], and the bone marrow cells were resuspended in red blood cell lysis buffer for 5 minutes.
(§3) Separation of neutrophils using density gradient centrifugation was performed as previously described (Swamydas, et al. J Vis Exp. 2013 (77):e50586). The bone marrow cells were resuspended in 1 ml of ice-cold sterile PBS. Using a 15 mL conical tube, 3 ml of Histopaque 1119 was first added followed by an overlay of 3 mL of Histopaque 1077. The bone marrow cell suspension was then overlaid on the Histopaque 1077. The samples were centrifuged for 30 min at 2,000 rpm at 25° C. Neutrophils were then at the interface of the Histopaque 1119 and Histopaque 1077 layers. […]

Caspase-3 = test: Western blot of Caspase-3 cleavage in isolated primary mouse neutrophils; assay type: cell-based; details: primary neutrophils from mouse bone marrow; FIG. 12
From the text: as §1, §2, §3

mCECs = test: Scratch wound assay of mCECs cultured with dissected corneas from treated mice; assay type: cell-based, mouse; details: FIG. 3A, 3B
Description: The potential function of neutrophil pyroptosis in corneal wound healing was next tested. Mouse corneas were first dissected with or without injury from WT, GsdmD^−/−, Gr-1 treated, and disulfiram treated mice, and cultured the dissected corneas with mCECs. A scratch wound was then created in the mCEC.
For disulfiram treatment of mice, disulfiram was dissolved in sesame oil (12.5 mg/ml). Mice were injected 16 hours before injury through intraperitoneal injection (50 mg/kg); injection continued daily for the duration of the experiment. For Gr-1 antibody treatment, mice were injected 16 hours and immediately before injury through intraperitoneal injection (100 μg/mouse).
To induce cellular migration, an in vitro scratch test was performed using mCECs. Cells were treated with dissected corneas or cytokines when they reached confluence, were subsequently scratched with a micropipette tip, and incubated for up to 12 hrs. Images were taken at 0, 3, 6, and 9 hours after the initial scratch. Images of wound closure were quantified by using ImageJ software.

injured corneas [2] = test: Alkali induced corneal injury: re-epithelialization / wound healing (fluorescein); assay type: in vivo, mice; details: disulfiram 50 mg/kg i.p. daily from 16 h before injury, antibodies before wounding, FIG. 7C-7F
Description: (§4) All animal care and usage followed NIH guidelines and were in accordance with the ARVO Statement for the Use of Animals in Ophthalmic and Vision Research. Rodent studies received IACUC approval by The Ohio State University. For all corneal wound healing models, injury was induced under anesthesia, all animals received topical antibiotics, and topical and systemic analgesics were provided for at least 72 h. To induce corneal injury, a 1.5 mm filter paper soaked in 1N NaOH was applied to the axial cornea for 30 seconds. The filter paper was then removed and the cornea rinsed with PBS for two minutes. After the cornea was thoroughly rinsed, fluorescein stain was applied to the cornea to verify corneal ulceration. For disulfiram treatment of mice, disulfiram was dissolved in sesame oil (12.5 mg/ml). Mice were injected 16 hours before injury through intraperitoneal injection (50 mg/kg); injection continued daily for the duration of the experiment. For Gr-1 antibody treatment, mice were injected 16 hours and immediately before injury through intraperitoneal injection (100 μg/mouse).

injured corneas [3] = test: Alkali induced corneal injury: corneal neovascularization, CD31 staining of corneal flat mount; assay type: in vivo, mice; details: disulfiram 50 mg/kg i.p. daily, FIG. 7G, 7H
Description: as §4, with “μg/mouse). Dissected eye from mice were fixed in 4% PFA for 24 to 48 hours at 4° C. […]” for “μg/mouse).”

GsdmD [4] = test: Western blot of corneal samples after alkali injury: GsdmD cleavage / pyroptosis; assay type: in vivo, mice; details: FIG. 2C
From the text: (§5) While neutrophil pyroptosis plays a detrimental role during corneal wound healing, the initial neutrophil infiltration is critical for removing dead corneal cells and debris, which is part of the healing process. Thus, complete depletion of neutrophil may not be the ideal option to promote normal corneal healing. Disulfiram is an FDA approved drug, which has been recently been identified as a pyroptosis inhibitor (Hu, et al. Nat Immunol. 2020 21(7):736-745). Thus, tested was whether application of disulfiram could be an effective means to promote corneal wound healing. […] To confirm treatment of disulfiram could inhibit post-injury pyroptosis, Western blot analysis was performed on corneal samples before and after injury.
(§6) All animal care and usage followed NIH guidelines and were in accordance with the ARVO Statement for the Use of Animals in Ophthalmic and Vision Research. Rodent studies received IACUC approval by The Ohio State University. For all corneal wound healing models, injury was induced under anesthesia, all animals received topical antibiotics, and topical and systemic analgesics were provided for at least 72 h. To induce corneal injury, a 1.5 mm filter paper soaked in 1N NaOH was applied to the axial cornea for 30 seconds. The filter paper was then removed and the cornea rinsed with PBS for two minutes. […]

Caspase-1 = test: Western blot: Caspase-1 cleavage after disulfiram treatment; assay type: in vivo, mice; details: FIG. 17
From the text: as §5, §6

[5] = tested on: IL-1β, caspase 1 and GsdmD; details: discussion statement following citation of Hu et al.; cited from earlier work

CCN(CC)C(=S)SSC(=S)N(CC)CC [Disulfiram, Tetraethylthiuram disulfide]
GsdmD cleavage in isolated neutrophils (GsdmD [1]): inhibits cleavage of GsdmD; also recorded: significantly inhibit
Caspase-3 cleavage in isolated neutrophils (Caspase-3): not cleavage of Caspase-3
inhibitory effects of injured corneas on mCECs migration (scratch wound closure) (mCECs): greatly reduced
corneal wound healing / re-epithelialization (injured corneas [2]): dramatically accelerated wound healing; also recorded: improved healing outcomes; also recorded: promote the re-epithelialization
corneal neovascularization (CNV), CD31 staining (injured corneas [3]): significantly reduced; also recorded: significantly reduce neovascularization
cleavage of GsdmD (GsdmD-N expression) (GsdmD [4]; FIG. 17 (disulfiram), 24 hours after injury (Gr-1 antibody)): suppress cleavage
activation of pyroptosis after corneal injury (GsdmD [4]; corneal samples after alkali injury, FIG. 17): effectively inhibited pyroptosis
cleavage of Caspase-1 (Caspase-1): suppress cleavage
cleavage of caspase 1 and GsdmD [5]: inhibit the cleavage of caspase 1 and GsdmD
release of mature IL-1β [5]: inhibit the release of mature IL-1β
